Read-outs that look alike come from different tables or passages of the source.

The test system of data set [1] is Penicillium sporum. It counts as cell-based.
For data set [2], the system named is Alternaria radicina. It counts as cell-based.
The subject of data set [3] is Candida tropicalis. Description: microbe, parasite or virus in culture. It counts as cell-based.
Data set [4] deals with Staphylococcus aureus. Description: microbe, parasite or virus in culture. The data set is classed as cell-based. The conditions noted are these: read-out: Efficiency of the preparation, % Staphylococcus aureus.
Data set [5] deals with Colibacillus. Put plainly: microbe, parasite or virus in culture. It counts as cell-based. The conditions noted are these: read-out: Efficiency of the preparation, % Colibacillus.
Data set [6] has as its system Infectant of poliomyelitis.
Data set [7] concerns Fusarium oxysporum. It counts as cell-based.
In data set [8] the test system is Venturia inaequalis. The data set is classed as cell-based.
Data set [9] deals with Candida albicans. Put plainly: microbe, parasite or virus in culture. It counts as cell-based.
Data set [10] deals with Helminthosporum saturem. It counts as cell-based.
For data set [11], the system named is Aspergillus niger. The data set is classed as cell-based.
Data set [12] relates to ascarid ovi. Description: animal or person. It counts as in vivo, pig.ascarid.
The test system of data set [13] is virus of influenza, type A, (H1N1). Put plainly: microbe, parasite or virus in culture.
In data set [14] the test system is houseflies. Description: whole plant or invertebrate. The conditions noted are these: Musca domestica; for mortality at 1 %: read-out: Death of flies, % Tests laboratory.
In data set [15] the test system is houseflies. The conditions noted are these: house fly, in vivo.
[16] abbreviates: 2 h, read-out: Death of test fungi, % to the control, Candida tropicalis 2 hrs.
[17] abbreviates: 20 h, read-out: Death of test fungi, % to the control, Candida tropicalis 20 hrs.
Where [18] appears, read: 2 h, read-out: Death of test fungi, % to the control, Candida albicans 2 hrs.
The mark [19] stands for this setting: 20 h, read-out: Death of test fungi, % to the control, Candida albicans 20 hrs.
The mark [20] stands for this setting: read-out: Death of ascarid ovi, % Tests laboratory.
Setting [21] is: H1N1, 0.5 h, read-out: Death of viruses (%) at 30 minutes exposure, Virus of influenza A.
The mark [22] stands for this setting: 24 h, read-out: Death of flies, % after 24 hours.
Setting [23] is: 72 h, read-out: Death of flies, % after 72 hours.
[24] abbreviates: 24 h, read-out: Death of ascarid ovi, % after 24 hrs.
Where [25] appears, read: 48 h, read-out: Death of ascarid ovi, % after 48 hours.
The mark [26] stands for this setting: 72 h, read-out: Death of ascarid ovi, % after 72 hours.
Where [27] appears, read: H1N1, read-out: Virucidal activity of the preparation in respect of the virus of influenza, type A, %.
Where [28] appears, read: 48 h, read-out: Death of flies, % after 48 hours.
[29] abbreviates: 24 h, read-out: Death of ascarid ovi, % after 24 hours.

As for `O=[N+]([O-])c1ccc(C(O)C(CO)NP(=O)(O)O)cc1` (stereo not drawn) [Example 1, 1-para-netrophenyl-1,3--propanediolamidophosphoric acid], the “Mycelium growth inhibition, % to the control, Penicillium sporum” value in data set [1] was 58%. The “Mycelium growth inhibition, % to the control, Alternaria radicina” value in [2] is on record as 75%. The killing at 0.05 % in data set [3] (setting [16]) came out at 96%; in [3] (setting [17]) it was 100%; in data set [9] (setting [18]) it was 98%; in [9] (setting [19]) it was 100%. Further, the killing at 0.5 % in data set [4] was found to be 80%; in [5], 100%. In data set [6], the “Death of viruses (%) at 60 minutes exposure, Infectant of poliomyelitis” value is recorded as 40%. Besides, the “Mycelium growth inhibition, % to the control, Fusarium oxisporum” value in [7] was 68%. In addition, in [8], the “Mycelium growth inhibition, % to the control, Venturia inaequalis” value was 32%. Besides, in data set [10], the “Mycelium growth inhibition, % to the control, Helminthosporum saturem” value was 54%. Further, the “Mycelium growth inhibition, % to the control, Aspergillus niger” value in data set [11] is 99%. For the same molecule, the killing at 3 % in data set [12] (setting [20]) is 100%.

For `O=[N+]([O-])c1ccc(C(O)C(CCl)NP(=O)(Oc2ccccc2)Oc2ccccc2)cc1` (stereo not drawn) [Example 5, diphenyl ether of 1-para-nitrophenyl-1--hydroxy-3-chloroisopropylamidophosphoric acid], the killing at 1 % in data set [13] (setting [21]) is 100%. The killing at 3 % in data set [12] (setting [20]) stood at 100%. Also, the mortality at 3 % in data set [14] (setting [22]) is 35.4%; in [14] (setting [23]) it was 96%.

For `O=[N+]([O-])c1ccc(C(Cl)C(CCl)NP(=O)(Oc2ccccc2)Oc2ccccc2)cc1` (stereo not drawn) [Example 6, 1-para-nitrophenyl-1,3-dichlorisopropylamidophosphoric acid diphenyl ether], the killing at 1 % in data set [13] (setting [21]) stood at 100%. The killing at 3 % in data set [12] (setting [20]) is 100%. Also, the mortality at 3 % in data set [14] (setting [22]) worked out at 64.7%; in data set [14] (setting [23]) it was 98.6%.

With `O=[N+]([O-])c1ccc(C(O)C(CCl)NP(=O)(Nc2ccccc2)Nc2ccccc2)cc1` (stereo not drawn) [Example 7, 1-para-nitrophenyl-1-hydroxy-3-chloroisopro-pylamidophosphoric acid dianilide], the killing at 1 % in data set [13] (setting [21]) was 100%. Also, in [12] (setting [20]), the killing at 3 % was found to be 100%. In addition, the figures for the mortality at 3 % in data set [14] (setting [22]) and in data set [14] (setting [23]) were 55.1% and 94%, respectively.

As for `O=[N+]([O-])c1ccc(C(Cl)C(CCl)NP(=O)(Nc2ccccc2)Nc2ccccc2)cc1` (stereo not drawn) [Example 8, 1-para- . -nitrophenyl-1,3-dichloroisopropylamidophosphoric acid dianilide], the killing at 1 % in data set [13] (setting [21]) was found to be 100%. Besides, the killing at 3 % in data set [12] (setting [20]) turned out to be 100%. Besides, the mortality at 3 % in [14] (setting [22]) was determined as 66.4%; in [14] (setting [23]), 98%.

For `O=[N+]([O-])c1ccc(C(O)C(CCl)NP(=O)(O)Nc2ccccc2)cc1` (stereo not drawn) [Example 9], the killing at 1 % in data set [13] (setting [21]) was 78%. Also, in [12] (setting [20]), the killing at 3 % stood at 100%. The figures for the mortality at 3 % in data set [14] (setting [22]) and in [14] (setting [23]) were 65% and 96%, respectively.

Regarding `O=[N+]([O-])c1ccc(C(Cl)C(CCl)NP(=O)(O)Nc2ccccc2)cc1` (stereo not drawn) [Example 10, 1-para-nitrophenyl-1,3-dichloropropan--2-amidophosphoric acid monoanilide], in [13] (setting [21]), the killing at 1 % is 87%. Besides, the killing at 3 % in data set [12] (setting [20]) was determined as 100%. Further, the mortality at 3 % was 77% in data set [14] (setting [22]) and 99% in data set [14] (setting [23]).

For the molecule `COP(=O)(NC(CCl)C(O)c1ccc([N+](=O)[O-])cc1)OC` (stereo not drawn) [Example 11, 1-para-nitrophenyl-1-chloro-3-propanolamidophosphoric acid dimethyl ether], in data set [13] (setting [21]), the killing at 1 % worked out at 74%. In addition, the “Death of flies, % Tests laboratory” value in data set [15] came to 72.7%. Further, the killing at 3 % in [12] (setting [24]), in data set [12] (setting [25]) and in data set [12] (setting [26]) was 100% each time. Besides, the mortality at 1 % in data set [14] turned out to be 67.7%.

Consider `COP(=O)(NC(CCl)C(Cl)c1ccc([N+](=O)[O-])cc1)OC` (stereo not drawn) [Example 12, 1-para-nitrophenyl--1,3-dichloropropanamidophosphoric acid dimethyl ether], for which, in data set [13] (setting [21]), the killing at 1 % was determined as 85%. Further, the killing at 3 % in [12] (setting [24]), in data set [12] (setting [25]) and in data set [12] (setting [26]) was 100% each time. Moreover, the mortality at 1 % in data set [14] is 71.4%.

Regarding `CCOP(=O)(NC(CCl)C(O)c1ccc([N+](=O)[O-])cc1)OCC` (stereo not drawn) [Example 13, 1-para-nitrophenyl-1-chloro-3-propanolamidophosphoric acid diethyl ether], the killing at 1 % in data set [13] (setting [21]) amounted to 90%. Besides, the killing at 3 % in data set [12] (setting [24]), in [12] (setting [25]) and in data set [12] (setting [26]) was 100% each time. Also, the mortality at 1 % in [14] is 99.6%.

Take `CCOP(=O)(NC(CCl)C(Cl)c1ccc([N+](=O)[O-])cc1)OCC` (stereo not drawn) [Example 14, 1-para-nitrophenyl-1,3--dichloropropanamidophosphoric acid diethyl ether]: the killing at 1 % in data set [13] (setting [21]) came to 90%. Besides, the killing at 3 % in data set [12] (setting [24]), in data set [12] (setting [25]) and in [12] (setting [26]) was 100% in each case.

Take `CCOP(=O)(O)NC(CO)C(O)c1ccc([N+](=O)[O-])cc1` (stereo not drawn) [Example 29, 1-para-nitrophenyl-1,3-propanediolamidophos-phoric acid ethyl ether]: in [13] (setting [27]), the killing at 1 % stood at 83.3% and the killing at 2 % worked out at 86.7%. Moreover, the killing at 3 % in [12] (setting [20]) was 100%. The mortality at 2 % in data set [14] (setting [28]) worked out at 56%. Moreover, the mortality at 2 % in data set [14] (setting [23]) was 92.3%.

Consider `CCOP(=O)(O)NC(CCl)C(O)c1ccc([N+](=O)[O-])cc1` (stereo not drawn) [Example 30], for which, in data set [13] (setting [27]), the killing at 1 % turned out to be 71.2% and the killing at 2 % stood at 79%. The killing at 3 % in data set [12] (setting [20]) was 100%. For the same molecule, in [14] (setting [28]), the mortality at 2 % was determined as 42.8%. Moreover, the mortality at 2 % in data set [14] (setting [23]) is 94%.

On to `CCOP(=O)(O)NC(CCl)C(Cl)c1ccc([N+](=O)[O-])cc1` (stereo not drawn) [Example 31, 1-para-nitrophenyl-1,3-dichloropropanamidophosphor-ic acid ethyl ether], for which, in [13] (setting [27]), the killing at 1 % was 36.9% and the killing at 2 % came to 46.9%. Also, the killing at 3 % in [12] (setting [20]) was determined as 100%. Besides, the mortality at 2 % in data set [14] (setting [28]) turned out to be 44.2%. For the same molecule, the mortality at 2 % in data set [14] (setting [23]) was 91.3%.

As for `O=C(N[C@H](COP(=O)(NC(CCl)C(O)c1ccc([N+](=O)[O-])cc1)OC[C@@H](NC(=O)C(Cl)Cl)[C@H](O)c1ccc([N+](=O)[O-])cc1)[C@H](O)c1ccc([N+](=O)[O-])cc1)C(Cl)Cl` (stereo partly drawn) [Example 32], the killing at 3 % in [12] (setting [20]) stood at 100%.

For the molecule `O=[N+]([O-])c1ccc(C(O)C(CCl)NP(=O)(O)Oc2ccccc2)cc1` (stereo not drawn) [Example 58], the killing at 1 % in [13] (setting [27]) is 83.4%. Further, the killing at 2 % came out at 86% in [13] (setting [27]), 95.4% in data set [12] (setting [29]) and 100% in [12] (setting [25]). Besides, the mortality at 2 % in [14] (setting [28]) came out at 72%; in data set [14] (setting [23]) it was 99%.

For `O=[N+]([O-])c1ccc(C(Cl)C(CCl)NP(=O)(O)Oc2ccccc2)cc1` (stereo not drawn) [Example 59, 1-para-nitrophenyl-1,3-dichloropropane--2-amidophosphoric acid monophenyl ether], the killing at 1 % in data set [13] (setting [27]) came out at 92.3%. In addition, the killing at 2 % in [13] (setting [27]) was determined as 96.1%; in [12] (setting [29]), 91.8%; in data set [12] (setting [25]), 100%. The mortality at 2 % in data set [14] (setting [28]) is 60%; in data set [14] (setting [23]), 91.2%.

Consider `O=S(=O)(NCl)c1ccccc1` [Known bactericidal preparation, Sodium N-Chlorobenzenesulphamide, reference compound], for which, in data set [4], the killing at 0.5 % was found to be 100%. In addition, the killing at 0.5 % in data set [5] amounted to 100%. In [13] (setting [27]), the killing at 1 % is 22% and the killing at 2 % amounted to 28%.

On to `CNC(=S)S` [Known ovocidal preparation (carbathion), sodium N-methyldithiocarbamate dihydrate, reference compound], for which the killing at 2 % in data set [12] (setting [29]) came to 60%; in data set [12] (setting [25]) it was 80%. The killing at 3 % in data set [12] (setting [24]) turned out to be 100%; in data set [12] (setting [25]), 100%; in data set [12] (setting [20]), 80%.

`O=C1C(Cl)=C(Cl)C(=O)c2ccccc21` [Phygon, 2,3-dichloronaphtho-quinone-1,4, reference compound]: the “Mycelium growth inhibition, % to the control, Penicillium sporum” value in data set [1] came out at 100%. The “Mycelium growth inhibition, % to the control, Alternaria radicina” value in [2] is 94%. For the same molecule, the killing at 0.05 % came out at 76% in data set [3] (setting [16]), 100% in data set [3] (setting [17]), 68% in [9] (setting [18]) and 100% in data set [9] (setting [19]). In data set [7], the “Mycelium growth inhibition, % to the control, Fusarium oxisporum” value is given as 58%. The “Mycelium growth inhibition, % to the control, Venturia inaequalis” value in data set [8] is given as 98%. Besides, in data set [10], the “Mycelium growth inhibition, % to the control, Helminthosporum saturem” value stood at 92%. The “Mycelium growth inhibition, % to the control, Aspergillus niger” value in data set [11] came out at 100%.

Values taken from patent EP0404945A1 (priority 1989, dated 1990).
